The results in this text go back to ChEMBL document CHEMBL6092154, “Design, synthesis, and evaluation of a novel TRAIL-activated HDAC6 inhibitor for the treatment of pulmonary fibrosis” (Bioorg Med Chem, 2024).

Data set [1] concerns the target Histone deacetylase 2 (Homo sapiens, UniProt Q92769). As to the kind of experiment: Inhibition of HDAC2 (unknown origin) at 1 uM incubated for 30 mins by fluorometric analysis.
In data set [2] the test system is Mus musculus. As to the kind of experiment: Anti-pulmonary fibrosis activity in bleomycin-induced idiopathic pulmonary fibrosis C57BL/6J mouse model assessed as decrease in collagen I protein expression in lung at 50 mg/kg, ig administered daily via gavage measured after 14 days by western blot analysis. Format: functional, organism-based. As to conditions: time 14.0 day; call rule not given here. Background: Immunoblotting shows a protein as a band on a membrane.

The target of data set [3] is T1, Histone deacetylase 8 (Homo sapiens, UniProt Q9BY41).
T1 sequence (Q9BY41 whole entry): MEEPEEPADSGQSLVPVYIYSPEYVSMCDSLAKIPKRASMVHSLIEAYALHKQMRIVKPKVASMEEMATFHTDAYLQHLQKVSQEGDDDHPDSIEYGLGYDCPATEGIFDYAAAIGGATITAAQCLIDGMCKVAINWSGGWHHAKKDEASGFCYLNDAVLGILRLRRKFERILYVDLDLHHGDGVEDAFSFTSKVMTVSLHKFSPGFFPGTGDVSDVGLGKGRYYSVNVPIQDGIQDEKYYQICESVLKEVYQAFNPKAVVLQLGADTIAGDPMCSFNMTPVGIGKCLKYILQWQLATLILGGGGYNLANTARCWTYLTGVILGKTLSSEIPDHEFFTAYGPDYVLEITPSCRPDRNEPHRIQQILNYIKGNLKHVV
As to the kind of experiment: Inhibition of HDAC8 (unknown origin) incubated for 30 mins by fluorometric analysis.

The target in data set [4] is Histone deacetylase 1 (Homo sapiens) (UniProt Q13547). The data set can be described thus: Inhibition of HDAC1 (unknown origin) at 1 uM incubated for 30 mins by fluorometric analysis.
Histone deacetylase 1 (Homo sapiens), sequence (Q13547 whole entry): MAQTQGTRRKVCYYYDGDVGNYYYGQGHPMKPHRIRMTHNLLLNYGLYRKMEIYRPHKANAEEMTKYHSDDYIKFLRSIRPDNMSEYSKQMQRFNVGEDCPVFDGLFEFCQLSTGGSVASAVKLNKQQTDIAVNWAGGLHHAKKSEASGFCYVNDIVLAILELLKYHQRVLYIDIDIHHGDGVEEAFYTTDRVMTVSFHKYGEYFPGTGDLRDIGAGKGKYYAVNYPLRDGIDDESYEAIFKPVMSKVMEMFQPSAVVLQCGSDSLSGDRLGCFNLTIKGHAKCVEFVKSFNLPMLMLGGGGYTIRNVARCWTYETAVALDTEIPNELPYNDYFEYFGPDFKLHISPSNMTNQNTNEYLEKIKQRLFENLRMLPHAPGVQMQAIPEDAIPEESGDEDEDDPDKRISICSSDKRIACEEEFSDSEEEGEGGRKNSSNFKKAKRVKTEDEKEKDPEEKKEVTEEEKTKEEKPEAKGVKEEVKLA
Data set [5] in a line: Toxicity against bleomycin-induced pulmonary fibrosis C57BL/6J mouse model assessed as effect on heart morphological changes at 25 to 50 mg/kg, ig administered daily via gavage and measured on day 14 by Hematoxylin-Eosin staining based analysis. Format: organism-based. Particulars: in vivo, po, 336 h, dose 25-50 mg/kg, time 14 day.
Data set [6] addresses T2, Protein deacetylase HDAC6 (Mus musculus) (UniProt Q9Z2V5).
T2 sequence (whole entry): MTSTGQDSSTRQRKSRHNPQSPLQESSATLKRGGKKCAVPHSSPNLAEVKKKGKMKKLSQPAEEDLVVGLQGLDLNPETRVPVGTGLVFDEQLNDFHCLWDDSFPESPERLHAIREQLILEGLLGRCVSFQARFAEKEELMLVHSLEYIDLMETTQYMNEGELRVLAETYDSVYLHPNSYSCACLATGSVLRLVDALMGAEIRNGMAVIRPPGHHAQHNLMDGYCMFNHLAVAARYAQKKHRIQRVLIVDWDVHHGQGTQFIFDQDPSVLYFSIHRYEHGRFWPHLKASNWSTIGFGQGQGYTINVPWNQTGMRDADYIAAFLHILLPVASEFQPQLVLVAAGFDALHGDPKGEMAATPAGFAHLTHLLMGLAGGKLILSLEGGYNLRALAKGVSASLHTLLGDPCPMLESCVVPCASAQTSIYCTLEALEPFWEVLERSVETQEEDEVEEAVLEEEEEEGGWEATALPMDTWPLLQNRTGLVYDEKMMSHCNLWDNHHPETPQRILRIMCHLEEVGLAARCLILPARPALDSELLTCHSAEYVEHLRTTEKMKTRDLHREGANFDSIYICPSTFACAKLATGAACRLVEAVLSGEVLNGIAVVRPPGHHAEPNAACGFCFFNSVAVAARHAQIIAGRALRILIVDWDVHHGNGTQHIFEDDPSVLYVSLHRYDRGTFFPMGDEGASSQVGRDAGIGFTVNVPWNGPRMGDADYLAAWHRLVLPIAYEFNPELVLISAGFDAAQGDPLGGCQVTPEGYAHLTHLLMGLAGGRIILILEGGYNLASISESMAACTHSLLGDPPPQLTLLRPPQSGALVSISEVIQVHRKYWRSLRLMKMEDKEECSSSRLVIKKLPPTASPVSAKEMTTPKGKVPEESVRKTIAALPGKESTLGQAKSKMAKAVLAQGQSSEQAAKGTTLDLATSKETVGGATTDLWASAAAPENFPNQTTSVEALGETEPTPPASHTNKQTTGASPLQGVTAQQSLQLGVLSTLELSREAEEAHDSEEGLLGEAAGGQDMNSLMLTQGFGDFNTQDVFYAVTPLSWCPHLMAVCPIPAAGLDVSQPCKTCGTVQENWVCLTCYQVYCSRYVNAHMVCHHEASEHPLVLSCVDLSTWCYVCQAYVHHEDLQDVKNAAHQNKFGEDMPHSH
The data set can be described thus: In vivo inhibition of HDAC6 in bleomycin-induced idiopathic pulmonary fibrosis C57BL/6J mouse model assessed as increase in acetylated histone H4 level in lung at 50 mg/kg, ig administered via gavage and measured on day 14 by western blot analysis. Format: functional, organism-based. As to conditions: time 14.0 day.

Histone deacetylase 2, sequence (Q92769 whole entry): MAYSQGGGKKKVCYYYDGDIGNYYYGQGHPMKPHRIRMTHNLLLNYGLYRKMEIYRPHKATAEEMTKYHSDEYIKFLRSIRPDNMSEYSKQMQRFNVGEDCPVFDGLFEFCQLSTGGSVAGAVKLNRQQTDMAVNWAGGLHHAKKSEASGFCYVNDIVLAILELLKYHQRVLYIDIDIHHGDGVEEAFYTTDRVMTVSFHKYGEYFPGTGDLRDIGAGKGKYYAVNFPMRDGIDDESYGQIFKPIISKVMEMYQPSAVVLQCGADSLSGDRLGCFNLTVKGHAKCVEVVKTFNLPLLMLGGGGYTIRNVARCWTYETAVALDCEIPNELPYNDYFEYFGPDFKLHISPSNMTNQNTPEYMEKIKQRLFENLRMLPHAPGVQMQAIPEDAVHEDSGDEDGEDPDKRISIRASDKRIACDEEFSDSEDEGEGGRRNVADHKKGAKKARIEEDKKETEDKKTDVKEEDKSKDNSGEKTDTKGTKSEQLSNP

By inhibition is commonly meant the relative decrease from the control value, in per cent. A word on the IC50: it is the midpoint of a concentration-inhibition curve. Higher therefore signals weaker potency. As to `O=C(NO)c1ccc(CN2C(=O)C3=C(CCN(Cc4cccc(Cl)c4)C3)N3CCN=C23)cc1`, the inhibition in data set [1] is 61.8%; in data set [4] it was 56.1%; in data set [6], “Active; Levels Lower Than The Positive Control, Acy-1215”. Moreover, the Activity entry is on record as “Active; Superior Activity Compared To Positive Drug, Acy-1215” in data set [2] and “Non-toxic” in data set [5]. This molecule had an IC50 in data set [3] of 333 nM.
